# Measurements reported in article PMC9150124, “Design of a Potent, Selective, and Brain-Penetrant Inhibitor of Wnt-Deactivating Enzyme Notum by Optimization of a Crystallographic Fragment Hit” (Journal of Medicinal Chemistry, 2022).
# What was measured:
# [1] = biological target: kinase named in conditions (Homo sapiens, UniProt O00750); test: SelectScreen kinase profiling, SSBK Adapta SP Technology; format: biochemical; conditions: PIK3C2B (PI3K-C2 beta), 10 μM
# [2] = biological target: kinase named in conditions (Homo sapiens, UniProt O14986); test: as above; format: biochemical; conditions: PIP5K1B, 10 μM
# [3] = biological target: kinase named in conditions (Homo sapiens, UniProt O15111); test: as above; format: biochemical; conditions: CHUK (IKK alpha), 10 μM
# [4] = biological target: kinase named in conditions (Homo sapiens, UniProt O60285); test: as above; format: biochemical; conditions: NUAK1 (ARK5), 10 μM
# [5] = biological target: kinase named in conditions (Homo sapiens, UniProt O60331); test: as above; format: biochemical; conditions: PIP5K1C, 10 μM
# [6] = biological target: kinase named in conditions (Homo sapiens, UniProt O75747); test: as above; format: biochemical; conditions: PIK3C2G (PI3K-C2 gamma), 10 μM
# [7] = biological target: kinase named in conditions (Homo sapiens, UniProt P11802); test: as above; format: biochemical
# [8] = biological target: kinase named in conditions (Homo sapiens, UniProt P42336); test: as above; format: biochemical; conditions: 10 μM
# [9] = biological target: kinase named in conditions (Homo sapiens, UniProt P42336, E542K); test: as above; format: biochemical; conditions: PIK3CA E542K/PIK3R1 (p110 alpha E542K/p85 alpha), 10 μM
# [10] = biological target: kinase named in conditions (Homo sapiens, UniProt P42336, E545K); test: as above; format: biochemical; conditions: PIK3CA E545K/PIK3R1 (p110 alpha E545K/p85 alpha), 10 μM
# [11] = biological target: kinase named in conditions (Homo sapiens, UniProt P42356); test: as above; format: biochemical; conditions: PI4KA (PI4K alpha), 10 μM
# [12] = biological target: kinase named in conditions (Homo sapiens, UniProt P48426); test: as above; format: biochemical; conditions: PIP4K2A, 10 μM
# [13] = biological target: kinase named in conditions (Homo sapiens, UniProt P48736); test: as above; format: biochemical; conditions: PIK3CG (p110 gamma), 10 μM
# [14] = biological target: kinase named in conditions (Homo sapiens, UniProt P50613); test: as above; format: biochemical; conditions: CDK7/cyclin H/MNAT1, 10 μM
# [15] = biological target: kinase named in conditions (Homo sapiens, UniProt P50750); test: as above; format: biochemical; conditions: CDK9/cyclin T1, 10 μM
# [16] = biological target: kinase named in conditions (Homo sapiens, UniProt Q00534); test: as above; format: biochemical; conditions: CDK6/cyclin D1, 10 μM
# [17] = biological target: kinase named in conditions (Homo sapiens, UniProt Q5S007); test: as above; format: biochemical; conditions: LRRK2 FL, 10 μM
# [18] = biological target: kinase named in conditions (Homo sapiens, UniProt Q5S007, G2019S); test: as above; format: biochemical; conditions: LRRK2 G2019S FL, 10 μM
# [19] = biological target: kinase named in conditions (Homo sapiens, UniProt Q8NEB9); test: as above; format: biochemical; conditions: PIK3C3 (hVPS34), 10 μM
# [20] = biological target: kinase named in conditions (Homo sapiens, UniProt Q8TCG2); test: as above; format: biochemical; conditions: PI4K2B (PI4K2 beta), 10 μM
# [21] = biological target: kinase named in conditions (Homo sapiens, UniProt Q8TF76); test: as above; format: biochemical; conditions: GSG2 (Haspin), 10 μM
# [22] = biological target: kinase named in conditions (Homo sapiens, UniProt Q99755); test: as above; format: biochemical; conditions: PIP5K1A, 10 μM
# [23] = biological target: kinase named in conditions (Homo sapiens, UniProt Q9BTU6); test: as above; format: biochemical; conditions: PI4K2A (PI4K2 alpha), 10 μM
# [24] = biological target: kinase named in conditions (Homo sapiens, UniProt Q9UBF8); test: as above; format: biochemical; conditions: PI4KB (PI4K beta), 10 μM
# [25] = biological target: kinase named in conditions (Homo sapiens, UniProt P04049, Y340D/Y341D); test: SelectScreen kinase profiling, SSBK LanthaScreen Binding SP Technology; conditions: RAF1 (cRAF) Y340D Y341D, 10 μM
# Description: (§1) Kinase selectivity screening was performed by Thermo Fisher Scientific (Paisley, U.K.) in their SelectScreen Biochemical Kinase Profiling Service. Assay information and data are presented in the Supporting Information.
# (§2) Kinase selectivity screening was performed by ThermoFisher Scientific (Paisley, U.K.) in their SelectScreenTM
# (§3) Biochemical Kinase Profiling service .
# (§4) Illustration reproduced courtesy of Cell Signaling technology, Inc.
# (§5) (B) Illustration of phylogenetic tree of kinases screened.
# [26] = biological target: kinase named in conditions (Homo sapiens, UniProt P10721, V654A); test: as above; conditions: KIT V654A, 10 μM
# Description: as §1, §2, §3, §4, §5
# [27] = biological target: kinase named in conditions (Homo sapiens, UniProt P49336); test: as above; conditions: CDK8/cyclin C, 10 μM
# Description: as §1, §2, §3, §4, §5
# [28] = biological target: kinase named in conditions (Homo sapiens, UniProt Q02763, Y1108F); test: as above; conditions: TEK (TIE2) Y1108F, 10 μM
# Description: as §1, §2, §3, §4, §5
# [29] = biological target: kinase named in conditions (Homo sapiens, UniProt Q15569); test: as above; conditions: TESK1, 10 μM
# Description: as §1, §2, §3, §4, §5
# [30] = biological target: kinase named in conditions (Homo sapiens, UniProt Q16832, N456S); test: as above; conditions: DDR2 N456S, 10 μM
# Description: as §1, §2, §3, §4, §5
# [31] = biological target: kinase named in conditions (Homo sapiens, UniProt Q2M2I8); test: as above; conditions: AAK1, 10 μM
# Description: as §1, §2, §3, §4, §5
# [32] = Stability in rat liver microsomes
smiles,measurement,setting,value
"FC(F)(F)c1c(Cl)ccc(-n2ccnn2)c1Cl [8l, 1-(2,4-Dichloro-3-(trifluoromethyl)phenyl)-1H-1,2,3-triazole]",inhibition at 10 µM,[1],8%
same,inhibition at 10 µM,[2],1%
same,inhibition at 10 µM,[3],4%
same,inhibition at 10 µM,[4],-3%
same,inhibition at 10 µM,[5],-2%
same,inhibition at 10 µM,[6],11%
same,inhibition at 10 µM,"[7]; CDK4/cyclin D1, 10 μM",6%
same,inhibition at 10 µM,"[7]; CDK4/cyclin D3, 10 μM",4%
same,inhibition at 10 µM,[8]; PIK3CA/PIK3R1 (p110 alpha/p85 alpha),-6%
same,inhibition at 10 µM,[8]; PIK3CA/PIK3R3 (p110 alpha/p55 gamma),0%
same,inhibition at 10 µM,[9],6%
same,inhibition at 10 µM,[10],8%
same,inhibition at 10 µM,[11],-4%
same,inhibition at 10 µM,[12],-1%
same,inhibition at 10 µM,[13],-15%
same,inhibition at 10 µM,[14],-3%
same,inhibition at 10 µM,[15],-3%
same,inhibition at 10 µM,[16],-3%
same,inhibition at 10 µM,[17],7%
same,inhibition at 10 µM,[18],15%
same,inhibition at 10 µM,[19],-5%
same,inhibition at 10 µM,[20],16%
same,inhibition at 10 µM,[21],10%
same,inhibition at 10 µM,[22],0%
same,inhibition at 10 µM,[23],13%
same,inhibition at 10 µM,[24],1%
same,inhibition at 10 µM,[25],-3%
same,inhibition at 10 µM,[26],14%
same,inhibition at 10 µM,[27],18%
same,inhibition at 10 µM,[28],-9%
same,inhibition at 10 µM,[29],7%
same,inhibition at 10 µM,[30],26%
same,inhibition at 10 µM,[31],1%
same,"Liver microsome stability Cli, RLM",[32],< 9.6 μL/min/mg protein
same,half-life,"[32]; rat, liver microsomes",> 2.42 h
